What all share (type): cell-based, human
One assay relates to MCF-7/HYOR cell cultures. In words: Nucleoside metabolism experiments, distribution of drug-derived radiolabel in MCF-7/HYOR cell cultures. The note with it: 24 h; 1 μCi; FIG. 5. The procedure:
Next, the cells were trypsinized, transferred to Eppendorf tubes and centrifuged for 10 minutes at 1,400 rpm. The pellet was resuspended in 1 ml absolute ice-cold methanol and kept on ice for 20 minutes. After centrifugation for 20 minutes at 13,000 rpm the pellet was washed twice with methanol, resuspended in methanol and transferred to scintillation vials containing 9 ml of Ready safe liquid scintillation reagent (‘Hisafe 3’, Perkin Elmer, Waltham, Mass.). The radioactivity was measured by a Liquid scintillation analyzer (2300 TR, Packard, Canberra, Australia). […] Next, the cells were incubated in 0.5 ml absolute ice-cold methanol and kept on ice for 20 minutes. After centrifugation for 20 minutes at 13,000 rpm, the supernatant was subjected to HPLC analysis. […] The amount of compound incorporated into nucleic acids was measured as described above.

The subject of assay [1] is MCF-7 cells. In words: Gemcitabine metabolite distribution in MCF-7 cells (HPLC). The note with it: 24 h; 1 μCi; FIG. 5. As to the method:
MCF-7 and MCF-7/HYOR cells were seeded and treated with 1 μCi of nucleoside with and without TPi as described above. […] Next, the cells were incubated in 0.5 ml absolute ice-cold methanol and kept on ice for 20 minutes. After centrifugation for 20 minutes at 13,000 rpm, the supernatant was subjected to HPLC analysis. The nucleobases, nucleosides and nucleotides in the supernatant were separated by a Partisphere 10 SAX anion exchange column (Whatmann International Ltd., Maidstone, England) as described earlier (Balzarini J. et al., AIDS 2002; 16:2159-63), while the nucleobases and nucleosides present in the collected medium were separated using an RP-8 column. The amount of compound incorporated into nucleic acids was measured as described above.

The next assay deals with OST.TK^− cells. The assay can be described thus: Cytostatic activity in M. hyorhinis-infected osteosarcoma cells.
In assay [2] the test system is MCF-7 cells. In words: Flow cytometry, cell cycle arrest in MCF-7 cells.
A further assay relates to MDA-MB-231 cells. The assay can be described thus: Cytostatic activity in M. hyorhinis-infected MDA-MB-231 breast carcinoma cells.
Assay [3] deals with MCF-7 cells. The assay can be described thus: Tumor cell proliferation assay, uninfected MCF-7 cells. The note with it: for IC50: Homo sapiens, uninfected MCF-7. The procedure:
MCF-7 and MCF-7/HYOR cells were seeded in 48-well plates at 10,000 cells/cm^2. […] of the test compounds (5FU, 5′DFUR, CIdUrd, BrdUrd, IdUrd and TFT) with or without 10 μM TPi were added. The cells were incubated for another 4 days, trypsinized and counted by a Coulter counter (Analis, Suarlée, Belgium). In some experiments, the antibiotic plasmocin was added one or three days before addition of the test compounds.

Assay [4] concerns MCF-7/HYOR cells. In words: Flow cytometry, cell cycle arrest in MCF-7/HYOR cells. On the technique in general: In flow cytometry, cells or beads pass a laser one at a time.
The test system of assay [5] is MCF-7/HYOR cells. The assay can be described thus: Tumor cell proliferation assay, M. hyorhinis-infected MCF-7 cells. The note with it: for IC50: Homo sapiens, MCF7, M. hyorhinis-infected MCF-7. As to the method: Mycoplasma hyorhinis (ATCC 17981) was obtained from the American Type Culture Collection (ATCC, Manassas, Va.). The freeze-dried bacteria were reconstituted by adding 1 ml of DMEM. […] The co-culture of MCF-7 cells and M. hyorhinis was maintained under the same conditions as the uninfected MCF-7 cells. […] The cells were incubated for another 4 days, trypsinized and counted by a Coulter counter (Analis, Suarlée, Belgium).

The mark [6] stands for this setting: IC50 in the absence of TPi to IC50 in the presence of TPi.

Where “and” joins values, the source holds several entries; their conditions need not be identical. Identical values can stand only once. Like-named read-outs stand apart in the source and are kept apart here.

As for `Nc1ccn([C@@H]2O[C@H](CO)[C@@H](O)C2(F)F)c(=O)n1` [gemcitabine, 2′,2′-difluorodeoxycytidine], in the assay on MCF-7/HYOR cell cultures, the “Active (phosphorylated) metabolites of gemcitabine in M. hyorhinis infected MCF-7 cells” value is “no active metabolite can be detected”. Moreover, the “Activation (phosphorylation) of gemcitabine in MCF-7 cells” value with MCF-7 cells [1] is “readily activated”. Besides, the figures for the “Reduction in the cytostatic activity upon M. hyorhinis infection” value with OST.TK^− cells and in the assay with MDA-MB-231 cells were 70 fold and 40 fold, respectively. Also, the “Concentration causing cell cycle arrest in the S-phase” value in the assay with MCF-7 cells [2] was 0.2 µM. The IC50 was determined as 7.3 ± 3.6 nM with MCF-7 cells [3] (MCF7, 96 h, no TPi, 4 days, read-out: IC50 MCF-7 As such); 6.3 ± 2.2 nM with MCF-7 cells [3] (MCF7, with 10 μM TPi, read-out: IC50 MCF-7 +TPi (10 μM)); 80 ± 28 nM in the assay with MCF-7/HYOR cells [5] (no TPi, no plasmocin, read-out: IC50 MCF-7/HYOR As such); 5.8 ± 1.2 nM in the assay on MCF-7/HYOR cells [5] (with 10 μM TPi, read-out: IC50 MCF-7/HYOR +TPi (10 μM)). For the same molecule, in the assay on MCF-7 cells [3] (setting [6]), the “Ratio (1)/(2) MCF-7” value is 1.2. The “Higher concentration needed to cause a similar S-phase arrest than in MCF-7” value with MCF-7/HYOR cells [4] is recorded as 25 fold. Further, in the assay on MCF-7/HYOR cells [5] (setting [6]), the “Ratio (1)/(2) MCF-7/HYOR” value was 14. The “Reduction of cytostatic activity in infected MCF-7/HYOR compared to control MCF-7 cells” value with MCF-7/HYOR cells [5] (M. hyorhinis infection) is 10 fold and 14 fold. In addition, the “Anti-proliferative activity in MCF-7/HYOR after three days pre-incubation with doxycycline” value in the assay with MCF-7/HYOR cells [5] (doxycycline, 3 days) was “restores”. For the same molecule, the “Anti-proliferative activity in MCF-7/HYOR after three days pre-incubation with plasmocin” value with MCF-7/HYOR cells [5] (plasmocin 25 μg/ml, 3 days) is recorded as “restores”.

(Values after patent US20110065663A1, “ANTI-CANCER COMBINATION THERAPY” (Katholieke Universiteit Leuven, K.U. Leuven R&D, priority 2008, published 2011).)
